From article PMC12802961 (Journal of Antimicrobial Chemotherapy, 2025)
Where “and” joins values, the source holds several entries; their conditions need not be identical. Equal values may be shown once.

Experiments:
E. coli 52 = test: Neutropenic murine thigh infection model; format: in vivo, Escherichia coli
Method: All dosing regimens were performed in at least two animals per dosing regimen.
At t = 0 h, 2 h after infection, two mice were humanely euthanized to determine the initial number of cfu/thigh just before treatment. […] Subsequently, thighs were homogenized using the Ultra-Turrax homogenizer (IKA Labortechnik, Germany). For each thigh 10-fold dilution series were prepared and 3 × 10 µL per dilution were plated (Chromagar, bioMérieux, NL). The following day, colonies were counted and the number of cfu/thigh was calculated.
Free drug concentrations were used in all calculations.

[1] = test system: β-lactamase–producing Enterobacterales and Pseudomonas aeruginosa; test: Neutropenic murine thigh infection model, all isolates together; format: in vivo
Method: […]. […] […]. All dosing regimens were performed in at least two animals per dosing regimen.
At t = 0 h, 2 h after infection, two mice were humanely euthanized to determine the initial number of cfu/thigh just before treatment. All other animals were euthanized at t = 24 h unless the welfare of the animals indicated earlier termination, following animal welfare regulations. Thighs were taken and moved to a pre-cooled 10 mL plastic tube (Transport Tube, Omnilabo, NL) containing 2 mL PBS (NaCl 8.00 g/L, Na2HPO4 * 2H2O 1.44 g/L, KH2PO4 0.26 g/L, pH 7.2–7.4). Subsequently, thighs were homogenized using the Ultra-Turrax homogenizer (IKA Labortechnik, Germany). For each thigh 10-fold dilution series were prepared and 3 × 10 µL per dilution were plated (Chromagar, bioMérieux, NL). The following day, colonies were counted and the number of cfu/thigh was calculated. The drug effect was then determined as the difference between the log10cfu/thigh values at t = 24 h and t = 0 h (mean value of two mice) expressed as Δlog10cfu, i.e. positive result for growth, zero for static effect and negative for reduction of inoculum (killing).
. […] Free drug concentrations were used in all calculations. […]

K. pneumoniae 59 = test: Checkerboard broth microdilution MIC of cefepime alone and with taniborbactam; format: cell-based, Klebsiella pneumoniae
Text: Four previously well-characterized cefepime-resistant isolates, namely one ESBL-producing E. coli, one ESBL-producing K. pneumoniae and two P. aeruginosa (one VIM- and one AmpC constitutively -producing), were used.

[2] = Single-dose plasma pharmacokinetics, s.c., infected neutropenic mice
Method: All animal procedures were carried out in the Animal Facility for Medical and Scientific Purposes of the University General Hospital Attikon (EL 25 BIO 014), Athens, Greece. […] Outbred female CD-1 mice, obtained by the Hellenic Pasteur Institute, Greece, and Charles River Laboratories Models and Services, Germany, were used at the age of 7–8 weeks, weighing 20–25 g. The animals were allowed to acclimatize for at least 5 days upon arrival and were housed under standard conditions with water and food supplied ad libitum. […] Infection was induced (Day 0) by intramuscular injection of 0.05 mL bacterial inoculum of approximately 10^5–10^6 cfu/thigh.
The dose was administered s.c. (0.1 mL) 2 h after infection (t = 0 h). Blood samples were collected in 1 mL K3EDTA tubes through orbital sinus bleeding under isoflurane anaesthesia. Animals were immediately euthanized through cervical dislocation and blood samples taken at timepoints 0, 0.08, 0.25, 0.5, 0.75, 1, 1.5, 2, 3, 4, 6, and 8 h after single dose injection. Blood samples were centrifuged immediately after collection in a pre-cooled centrifuge, and plasma was stored at −80°C. For each timepoint two animals were euthanized in order to have duplicates for each condition.
The Cmax values were calculated from raw data and the AUCs were calculated using the trapezoidal rule. […] Equations used in the program were the classical polyexponential equations Ci(t) = PolyExp(i, n, t), where i = number of the compartments, n = number of doses and t = time from last dose (http://www.boomer.org/c/p4/c19/c19.pdf). The %fT > Ct was then determined using a bisectional rootfinder for intersections between simulated curve and concentration, and calculating the difference between intersection values. Free drug concentrations were used in all calculations.
For taniborbactam, a population pharmacokinetic model was developed using nonlinear mixed-effects modelling (NONMEM). The analysis was performed on the natural logarithm of the concentrations using the FOCE method with INTERACTION. All mice were assumed to weigh 1kg, resulting in PK parameters corresponding to a per kg base. […] Tools used to evaluate and visualize the model were RStudio (v0.98.1049), R (v3.1.2), XPose (v4.5.3) and PsN (v4.6.0), all with the graphical interface Pirana (v2.9.0).
To determine the structural pharmacokinetic model 1-, 2- and 3-compartment models were tested. Pharmacokinetic parameters were estimated in terms of central and peripheral volume of distribution (Vc and Vp), clearance (CL), and intercompartmental clearance (Q). Addition of interindividual variability (IPV), described using an exponential eta model, was evaluated for each pharmacokinetic parameter. The covariance between values for IPV was estimated using a […] matrix. Residual variability between observed and predicted plasma concentrations was described using an additional error model for logarithmically transformed data. The minimum value of objective function (OFV) was used as a criterion for model selection. […] Model adequacy was further evaluated by using various residual plots (‘goodness-of-fit’ plots) and values of random effects in variances. In the second step relationships between pharmacokinetic parameters and potential covariates were investigated. […] Dose covariates were modelled by using an exponential model, place of infection was modelled proportionally. Criteria for the inclusion of covariates in the model were the OFV, results of graphical evaluation of the parameter-covariate relationship and the decrease in parameter variability.
Three procedures were used to validate the final model. As an internal validation method, a bootstrap resampling method was used. Bootstrap datasets (n=1000) were generated by sampling randomly from the original dataset with replacement. Parameters were estimated for each of the replicate datasets using the developed model.

[3] = cefepime monotherapy q2h, extrapolated
[4] = cefepime monotherapy, extrapolated
[5] = + cefepime q2h 4 mg/kg, Ct 0.015 mg/L
[6] = + cefepime q2h 4 mg/kg, Ct 0.03 mg/L
[7] = + cefepime q2h 4 mg/kg, Ct 0.06 mg/L
[8] = + cefepime q2h 4 mg/kg, Ct 0.125 mg/L
[9] = + cefepime q2h 4 mg/kg, Ct 0.25 mg/L
[10] = + cefepime q2h 4 mg/kg, Ct 0.5 mg/L
[11] = + cefepime q2h 4 mg/kg, Ct 1 mg/L
[12] = + cefepime q2h 4 mg/kg, Ct 2 mg/L
[13] = + cefepime q2h 4 mg/kg, Ct 4 mg/L
[14] = taniborbactam q2h + cefepime q2h 4 mg/kg
[15] = Ct = taniborbactam concentration where reversal of cefepime resistance was found in vitro
[16] = taniborbactam, two-compartment model

Compound: CO/N=C(\C(=O)N[C@@H]1C(=O)N2C(C(=O)[O-])=C(C[N+]3(C)CCCC3)CS[C@H]12)c1csc(N)n1 [cefepime, Cefepime]
- 1 log10 kill: %ƒT > MIC (E. coli 52; [3]): (53.9) %
- 1 log10 kill: Total daily dose, mg/kg (E. coli 52; [3]): (5237.2) mg/kg
- Stasis: %ƒT > MIC (E. coli 52; [3]): (36.5) %
- Stasis: Total daily dose, mg/kg (E. coli 52; cefepime monotherapy q2h s.c. 24 h, extrapolated, Emax model): (1857.2) mg/kg
- 1 log10 kill: q2h dose, mg/kg (E. coli 52; [4]): (436.4) mg/kg
- Stasis: q2h dose, mg/kg (E. coli 52; [4]): (154.8) mg/kg
- Cefepime %fT > potMIC (E. coli 52; cefepime q2h 4 mg/kg, potMIC 0.06 mg/L (with 4 mg/L taniborbactam)): 80.70%
- Effect of cefepime alone ([1]; against Enterobacterales and AmpC-producing P. aeruginosa): marginally reached stasis
- Cefepime MIC at taniborbactam 0.03 mg/L (K. pneumoniae 59; K. pneumoniae 59, +taniborbactam 0.03 mg/L): 64 µg/mL
- Cefepime MIC at taniborbactam 0.06 mg/L (K. pneumoniae 59; K. pneumoniae 59, +taniborbactam 0.06 mg/L): 32 µg/mL
- Cefepime MIC at taniborbactam 0.125 mg/L (K. pneumoniae 59; K. pneumoniae 59, +taniborbactam 0.125 mg/L): 8 µg/mL
- Cefepime MIC at taniborbactam 0.25 mg/L (K. pneumoniae 59; K. pneumoniae 59, +taniborbactam 0.25 mg/L): 2 µg/mL
- Cefepime MIC at taniborbactam 0.5 mg/L (K. pneumoniae 59; K. pneumoniae 59, +taniborbactam 0.5 mg/L): 1 µg/mL
- Cefepime MIC at taniborbactam 1 mg/L (K. pneumoniae 59; K. pneumoniae 59, +taniborbactam 1 mg/L): 1 µg/mL
- Cefepime MIC at taniborbactam 2 mg/L (K. pneumoniae 59; K. pneumoniae 59, +taniborbactam 2 mg/L): 1 µg/mL
- Cefepime MIC at taniborbactam 4 mg/L (potMIC) (K. pneumoniae 59; K. pneumoniae 59, +taniborbactam 4 mg/L): 0.5 µg/mL
- MIC (K. pneumoniae 59; Klebsiella pneumoniae, 59, read-out: Cefepime MIC (mg/L) alone): 256 mg/L
- absorbance rate Ka ([2]; cefepime, one-compartment model, serum/plasma, s.c., infected mice): 15 h⁻¹

Compound: NCCN[C@H]1CC[C@H](CC(=O)N[C@H]2Cc3cccc(C(=O)O)c3OB2O)CC1 [taniborbactam, Taniborbactam]
- 1 log kill: Taniborbactam %ƒT > Ct 0.015 mg/L (E. coli 52; [5]): 100%
- Stasis: Taniborbactam %ƒT > Ct 0.015 mg/L (E. coli 52; [5]): 70.24%
- 1 log kill: Taniborbactam %ƒT > Ct 0.03 mg/L (E. coli 52; [6]): 100%
- Stasis: Taniborbactam %ƒT > Ct 0.03 mg/L (E. coli 52; [6]): 53.44%
- 1 log kill: Taniborbactam %ƒT > Ct 0.06 mg/L (E. coli 52; [7]): 99.7%
- Stasis: Taniborbactam %ƒT > Ct 0.06 mg/L (E. coli 52; [7]): 36.6% and 36.55%
- 1 log kill: Taniborbactam %ƒT > Ct 0.125 mg/L (E. coli 52; [8]): 82.8% and 82.82%
- Stasis: Taniborbactam %ƒT > Ct 0.125 mg/L (E. coli 52; [8]): 19.7% and 19.66%
- 1 log kill: Taniborbactam %ƒT > Ct 0.25 mg/L (E. coli 52; [9]): 65.92%
- Stasis: Taniborbactam %ƒT > Ct 0.25 mg/L (E. coli 52; [9]): 2.74%
- 1 log kill: Taniborbactam %ƒT > Ct 0.5 mg/L (E. coli 52; [10]): 49.3%
- Stasis: Taniborbactam %ƒT > Ct 0.5 mg/L (E. coli 52; [10]): 0%
- 1 log kill: Taniborbactam %ƒT > Ct 1 mg/L (E. coli 52; [11]): 32.14%
- Stasis: Taniborbactam %ƒT > Ct 1 mg/L (E. coli 52; [11]): 0%
- 1 log kill: Taniborbactam %ƒT > Ct 2 mg/L (E. coli 52; [12]): 15.24%
- Stasis: Taniborbactam %ƒT > Ct 2 mg/L (E. coli 52; [12]): 0%
- 1 log kill: Taniborbactam %ƒT > Ct 4 mg/L (E. coli 52; [13]): 0%
- Stasis: Taniborbactam %ƒT > Ct 4 mg/L (E. coli 52; [13]): 0%
- 1 log kill: Taniborbactam total daily dose, mg/kg (E. coli 52; [14]): 41.8 mg/kg
- Stasis: Taniborbactam total daily dose (E. coli 52; [14]): 3.20 mg/kg
- %fT > Ct of taniborbactam associated with 1 log10 kill [1, 15]: 60%–100%
- %fT > Ct of taniborbactam associated with stasis [1, 15]: 40%–50%
- Effect of taniborbactam on cefepime's static effect ([1]; all isolates, combined with cefepime): restored cefepime’s static effect against all isolates
- Taniborbactam TDDs at which cefepime regained its static effect ([1]; all isolates, with marginally ineffective doses of cefepime): 3.2 to 105 mg/kg
- Taniborbactam TDDs at which cefepime regained its 1 log10 kill effect ([1]; all strains except K. pneumoniae): 26–293 mg/kg
- q2h regimens more effective than q8h regimens ([1]; taniborbactam dose fractionation with cefepime q2h): > 10 fold
- Taniborbactam concentration at which reversal of phenotypic resistance to cefepime was observed (K. pneumoniae 59; ESBL-producing K. pneumoniae, in vitro checkerboard): 0.25 mg/L
- Absorption rate (h-1), Bootstrap ([2]; 772 successful bootstrap runs): 20 h⁻¹
- Central volume of distribution (L/Kg), Bootstrap median (95-percentile range) ([2]; 772 successful bootstrap runs): 0.63 (0.58-0.68) L/Kg
- Clearance (L/h/Kg), Bootstrap median (95-percentile range) ([2]; 772 successful bootstrap runs): 1.49 (1.23-1.57) L/h/Kg
- IPV (%) on clearance, Bootstrap median (95-percentile range) ([2]; 772 successful bootstrap runs): 14 (8-19) %
- IPV (%) on intercompartmental clearance, Bootstrap median (95-percentile range) ([2]; 772 successful bootstrap runs): 59 (40-77) %
- Intercompartmental clearance (L/h), Bootstrap median (95-percentile range) ([2]; 772 successful bootstrap runs): 0.11 (0.08-0.35) L/h
- Peripheral volume of distribution (L/Kg), Bootstrap median (95-percentile range) ([2]; 772 successful bootstrap runs): 0.94 (0.46-13.0) L/Kg
- t1/2a ([2]; central compartment, estimated): 17.6 min
- IPV (%) on clearance, Estimation, value (RSE) ([2]; interindividual variability of CL): 14.2 (14%)
- IPV (%) on intercompartmental clearance, Estimation, value (RSE) ([2]; interindividual variability of Q): 60.7 (13%)
- t1/2b ([2]; peripheral compartment, estimated): 45 min
- Central volume of distribution (L/Kg), Estimation, value (RSE) ([2]; population PK model (NONMEM)): 0.628 (4%) L/Kg
- Clearance (L/h/Kg), Estimation, value (RSE) ([2]; population PK model (NONMEM)): 1.49 (3%) L/h/Kg
- Peripheral volume of distribution (L/Kg), Estimation, value (RSE) ([2]; population PK model (NONMEM)): 0.926 (1%) L/Kg
- Absorption rate (h-1), Estimation ([2]; population PK model (NONMEM), fixed): 20 (fixed) h-1
- Intercompartmental clearance (L/h), Estimation, value (RSE) ([2]; population PK model (NONMEM), per kg): 0.109 (10%) L/h
- Vc [2, 16]: 0.628 L/kg
- volume of peripheral compartment Vp [2, 16]: 0.926 L/kg
- Ka ([2]; taniborbactam, two-compartment model, fixed value): 20 h⁻¹
